Reference: patent publication US6867186B2, “Cell-permeable protein inhibitors of calpain” (New England Medical Center Hospital, priority 1997, dated 2005)
Like-named read-outs stand apart in the source and are kept apart here. One block for each molecule: values may come before it. Peptide text beside a SMILES is read from it. * marks the point of attachment. Cbz = O=C(OCc1ccccc1)*; CHN2 = [N-]=[N+]=C*

What was measured:
[1] = test system: gel filtered platelets; test: Thrombin-induced platelet aggregation (aggregometer); format: cell-based, human; conditions: for IC50: initial rate during first 15 seconds, NI=no inhibition, peptidyl inhibitors 10 min pre-incubation, read-out: IC50, initial rate of thrombin-induced platelet aggregation; for effect on platelet aggregation: thrombin or SFLLR induced
Procedure: In one series of experiments, platelets were purified from […] on a SEPHAROSE 2B column in PIPES buffered saline containing glucose, pre-incubated with 45 μM calpastat or S-TIPPEY-ala for 30 minutes at 37° C., and placed in a cuvette in a BIODATA aggregometer. The aggregometer measures turbidity of the solution by nephlometry (light scatter). Aggregation was induced with thrombin (0.1 to 1 unit/ml) or the thrombin receptor agonist peptide SFLLR (SEQ ID NO:5). […] In contrast, S-TIPPEY-ala had no activity. A version of S-TIPPEYIN lacking the signal sequence similarly had no activity.
In another series of experiments, gel filtered platelets were obtained and tested as follows. Blood from healthy, aspirin-free volunteers was collected by venipuncture into 4% sodium citrate (9:1 v/v, final concentration 0.4%) and centrifuged at 200×g for 20 minutes to obtain platelet rich plasma (PRP). Following incubation with apyrase (4 units/ml for 5 minutes at room temperature), platelets were purified from PRP by gel-filtration at room temperature using a Sepharose 2B column equilibrated in PIPES buffer (25 mM PIPES pH 6.8, 140 mM NaCl, 4 mM KCl, and 0.1% glucose) (Hsu-Lin, et al., J. Biol. Chem. 259:9121-9126, 1984). Final gel filtered platelet concentrations were about 1.5×10^8 cells/ml.
Gel filtered platelets (250 μl aliquots at 1.6×10^8/ml) were incubated with the indicated concentration of calpastat or mutant calpastat-ala for either 20 or 30 minutes at 37° C. in the absence of calcium and stirring. To test peptidyl calpain inhibitors, platelets were preincubated with the indicated concentration of calpeptin, MDL, E64d, DMSO (vehicle control) or NH4Cl (cathepsin control) for 10 minutes at 37° C. Following incubation, platelets were recalcified (CaCl2, 2 mM) and stimulated with 0.05-1.0 unit/ml thrombin, while being stirred (1400 rpm) at 37° C. The sensitivity of platelet preparations to thrombin decreased over the course of a given experiment. The thrombin concentration used was to elicit robust aggregation and varied between 0.05 and 1.0 U/ml. Aggregation was measured using a Bio-Data lumi-aggregometer. Percent inhibition of aggregation was measured at 4 minutes following the onset of aggregation. The initial rate of aggregation during the first 15 seconds for treated vs. untreated samples was used to calculate the IC50 for each inhibitor.

[2] = test system: platelets; test: cells
Procedure: To determine whether S-TIPPEYIN could inhibit α-granule secretion in platelets, surface expression of P-selectin, which indicates α-granule secretion, was induced with the thrombin peptide SFLLR (SEQ ID NO:5) and analyzed by flow cytometry using an antibody against P-selectin. Blood from healthy volunteers was collected into sodium citrate (4% w/v) and centrifuged at 200×g for 10 minutes to prepare platelet-rich plasma (PRP), from which platelets were subsequently purified by gel filtration using a SEPHAROSE 2B column in PIPES buffer. Twenty μl of platelets (approximately 2×10^8 platelets/ml) were aliquoted into eppendorf tubes and one μl of S-TIPPEYIN, TIPPEYIN (lacking the signal peptide sequence), or S-TIPPEY-ala was added to achieve final concentrations of 6.25, 12.5, 25, 50, or 100 μM. The platelets were then incubated for 2 hours at 37° C. and subsequently exposed to either 1 μl PBS (unstimulated) or 1 μl of SFLLR (SEQ ID NO:5; stimulated) at the indicated concentration. After 30 seconds, a 7.5 μl aliquot was transferred to an eppendorf tube containing non-immune serum having antibodies that were conjugated to phycoerythrin. Following a 20 minute incubation at room temperature, the mixture was diluted with 1 ml of 2% paraformaldehyde and incubated at 4° C. for two hours. Antibody binding to platelet surface P-selectin was quantified using a FACSCAN flow cytometer (Becton Dickerson, San Jose, Calif.). Results were reported as the geometric mean of the relative fluorescence.
Platelets were pre-incubated with increasing concentrations of calpeptin, MDL, E64d, or DMSO (vehicle control) for ten minutes prior to stimulation with SFLLR.

[3] = test system: platelets; test: cells; format: cell-based; conditions: for IC50 / effect on platelet spreading: spreading on glass; for IC50: NI=no inhibition, read-out: IC50, inhibition of platelet spreading
Procedure: Platelet activation on surfaces can be inhibited by […] or […] fusion proteins. […] The cellular area of spread platelets was determined by computer assisted image analysis using NIH Image 1.61. […] Percent inhibition of spreading was calculated from the increase in mean cell area for untreated and treated samples vs. unspread DMSO controls.

[4] = test system: calpain; test: Ionophore-dependent calpain degradation of ABP and talin in platelets; format: cell-based; conditions: 5, 8, or 10 minutes A23187
Procedure: To investigate whether calpastat inhibits calpain activity in platelets, the ionophore-dependent proteolysis of actin binding protein (ABP; about 280 kDa) and talin (about 240 kDa), both of which are substrates of both μ- and m-calpains, was examined as follows.
Platelets were pre-incubated with ZLLYCHN2, DMSO (solvent for ZLLY-CHN2), calpastat, or HEPES buffer (buffer for calpastat), and then treated with or without ionophore A23187 for 5, 8, or 10 minutes. The platelets were then gel-purified as described above. Whole cell lysates were prepared and fractionated by SDS polyacrylamide gel electrophoresis.

[5] = test system: HIV-1; conditions: 24 h
Procedure: (§1) U1 is a human promonocytic cell line that is chronically infected with HIV-1 and that constitutively expresses low levels of HIV-1. […] In the present experiment, 1×10^6 cells/ml were treated with various dosages of calpastat and incubated for one hour at 37° C. After incubation, various concentrations of Tpg were added to the calpastat-treated cells and aliquoted into a 24-well plate. To observe the stimulation of HIV-1 activity by Tpg, equivalent numbers of cells were treated with Tpg alone. The cells were then incubated at 37° C. for up to four days, and supernatants from the cell culture were collected each day to measure HIV-1 activity. The viability of cells treated with both Tpg and calpastat were determined each day by Trypan-blue exclusion test. The HIV-1 activity in the collected supernatants was determined by measuring the HIV-1 p24 core antigen protein by ELISA (Dupont Medical Products, Boston, Mass.) according to the manufacturer's instructions.
In another series of experiments, U1 cells, which are latently infected with HIV-1 provirus, were plated at 10^6 cells/well in 1 ml of medium and treated with varying concentrations of either calpastat (FIG. 7E) or calpeptin (benzyloxycarbonyl-leucyl-norleucinal) (FIG. 7F) for 45 minutes before addition of thapsigargin (4 nM final concentration). […] After 48 hours of stimulation, HIV-1 p24 antigen levels were determined in 200 μl of tissue culture supernatant, using a p24 ELISA (DuPont). All assays were performed on triplicate cultures.

[6] = test system: U1 cells; test: U1 cell viability (Trypan-blue exclusion); format: cell-based, human; conditions: for U1 cell viability: 96 hr
Procedure: as §1
In another series of experiments, U1 cells, which are latently infected with HIV-1 provirus, were plated at 10^6 cells/well in 1 ml of medium and treated with varying concentrations of either calpastat (FIG. 7E) or calpeptin (benzyloxycarbonyl-leucyl-norleucinal) (FIG. 7F) for 45 minutes before addition of thapsigargin (4 nM final concentration). The viability of U1 monocytes was 90% at 48 hours of thapsigargin (4 nM) treatment, in the presence or absence of calpain inhibitors. After 48 hours of stimulation, HIV-1 p24 antigen levels were determined in 200 μl of tissue culture supernatant, using a p24 ELISA (DuPont). All assays were performed on triplicate cultures. Mean values and standard deviations are shown for each concentration of inhibitor (FIGS. 7E-7F).

[7] = molecular target: T1, purified µ-calpain (porcine erythrocyte) (porcine, UniProt P35750 1-714; P04574 1-266, limits assumed); test: cell-based or functional assay
T1 sequence (looked up) 1: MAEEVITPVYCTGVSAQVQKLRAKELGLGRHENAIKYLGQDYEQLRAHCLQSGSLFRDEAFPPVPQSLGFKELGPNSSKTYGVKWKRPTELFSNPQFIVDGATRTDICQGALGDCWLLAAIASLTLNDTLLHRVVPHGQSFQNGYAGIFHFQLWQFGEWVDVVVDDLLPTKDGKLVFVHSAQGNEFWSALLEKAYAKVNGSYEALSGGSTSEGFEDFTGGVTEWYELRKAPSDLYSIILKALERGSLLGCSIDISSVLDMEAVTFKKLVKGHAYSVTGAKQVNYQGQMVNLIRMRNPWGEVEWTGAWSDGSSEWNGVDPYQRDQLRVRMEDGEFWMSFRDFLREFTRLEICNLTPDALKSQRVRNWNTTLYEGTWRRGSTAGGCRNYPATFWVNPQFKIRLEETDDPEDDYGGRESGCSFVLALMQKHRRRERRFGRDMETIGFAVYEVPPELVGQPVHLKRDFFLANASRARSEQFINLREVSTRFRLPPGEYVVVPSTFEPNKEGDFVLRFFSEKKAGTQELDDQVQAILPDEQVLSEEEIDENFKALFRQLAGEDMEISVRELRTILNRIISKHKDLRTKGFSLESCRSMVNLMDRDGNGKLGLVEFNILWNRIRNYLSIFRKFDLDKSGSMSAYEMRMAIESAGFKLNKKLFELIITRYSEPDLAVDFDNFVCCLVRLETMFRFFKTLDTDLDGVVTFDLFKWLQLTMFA
T1 sequence (looked up) 2: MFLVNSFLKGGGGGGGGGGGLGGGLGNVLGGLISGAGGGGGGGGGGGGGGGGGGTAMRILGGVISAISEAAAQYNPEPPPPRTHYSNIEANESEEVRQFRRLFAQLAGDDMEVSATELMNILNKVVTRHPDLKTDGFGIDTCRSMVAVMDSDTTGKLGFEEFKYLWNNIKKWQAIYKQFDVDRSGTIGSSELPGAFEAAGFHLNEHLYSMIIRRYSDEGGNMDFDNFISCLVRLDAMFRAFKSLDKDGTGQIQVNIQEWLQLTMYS

- IC50 ([1]; Homo sapiens, Platelet): 150 µM
- IC50 ([2]; Homo sapiens, Platelet, read-out: IC50 / half-maximal inhibition of P-selectin surface expression): 200 to 300 µM
- IC50 ([3]; Platelet): 200 µM
Molecule: CCCC[C@@H](C=O)NC(=O)[C@H](CC(C)C)NC(=O)OCc1ccccc1 [Calpeptin, benzyloxycarbonyl-leucyl-norleucinal]
- platelets round and unspread ([3]; pre-treated at 200 μM): 30%

Molecule: CCOC(=O)[C@H]1O[C@@H]1C(=O)N[C@@H](CC(C)C)C(=O)NCCC(C)C [E64d]
- IC50 [1]: 340 µM
- platelets round and unspread ([3]; pretreated at 250 μM): About 20%
- IC50 [3]: > 250 µM

Molecule: CC(C)[C@H](NC(=O)OCc1ccccc1)C(=O)N[C@H](C=O)Cc1ccccc1 [MDL] (Cbz-Val-Phe-aldehyde)
- IC50 [1]: 240 µM
- platelets round and unspread ([3]; pre-treated at 200 μM): 30%
- IC50 [3]: 200 µM

Molecule: Cl.N [NH4Cl]
- effect on platelet aggregation [1]: does not affect platelet aggregation
- effect on platelet spreading [3]: no effect

Molecule: CC(C)C[C@H](NC(=O)OCc1ccccc1)C(=O)N[C@@H](CC(C)C)C(=O)N[C@@H](Cc1ccc(O)cc1)C(=O)C=[N+]=[N-] [ZLLYCHN2, reference compound] (Cbz-Leu-Leu-Tyr-CHN2)
- A23187-dependent calpain degradation of ABP and talin in platelets [4]: inhibited
- effect on platelet spreading [3]: no inhibitory activity

Molecule: C/C=C(/C)C(=O)O[C@H]1C(C)=C2[C@H]([C@@H]1OC(=O)CCCCCCC)[C@@](C)(OC(C)=O)C[C@H](OC(=O)CCC)[C@@]1(O)[C@H]2OC(=O)[C@@]1(C)O [thapsigargin]
- induction of virus (HIV-1) ([5]; 1 nM Tpg): 1.37 fold
- induction of virus (HIV-1) ([5]; 5 nM Tpg): 20 fold
- U1 cell viability ([6]; 4.0 nM Tpg): about 50%
- viability of U1 monocytes ([6]; 4 nM thapsigargin, 48 hours, presence or absence of calpain inhibitors): 90%
- U1 cell viability ([6]; 50 nM Tpg): ~5%

Molecule: EKLGERDDTIPPEYRELLEKKTGV [Calpastatin 24 mer]
- effect on platelet aggregation [1]: no measurable effect
- effect on platelet aggregation ([1]; listed as S-TIPPEYIN lacking the signal sequence): no activity
- effect on SFLLR-induced P-selectin surface expression ([2]; pre-incubation, SFLLR stimulation): little effect

- inhibition of calpain cleavage of [14C]-methylcasein in a cell-free system (2.7 µM µ-calpain), IC50 [7]: 0.5 µM
- inhibition of µ-calpain cleavage of suc-LLVY-AMC (fluorometric calpain assay, 70 nM enzyme), IC50 [7]: 0.05 µM
Molecule: H-AAVALLPAVLLALLAPEKLGERDDTIPPEYRELLEKKTGV-OH [calpastat]
